# Experimental data from ChEMBL document CHEMBL3046828, “Disappearance of pyrimethanil residues on tomato plants” (J Agric Food Chem, 2002).
# What was measured:
# [1] = tested on: Fruit; experiment: Drug degradation in Solanum lycopersicum (tomato) plant fruits at 300 g/L treated under green house condition measured after 22 days relative to initial level; assay type: ADME; details: 528 h
# [2] = tested on: Fruit; experiment: Drug degradation in Solanum lycopersicum (tomato) plant fruits at 300 g/L treated under green house condition measured after 15 days relative to initial level; assay type: ADME; details: 360 h
# [3] = tested on: Leaf; experiment: Drug degradation in Solanum lycopersicum (tomato) plant leaves at 300 g/L treated under green house condition measured after 15 days relative to initial level; assay type: ADME; details: 360 h
# [4] = tested on: Fruit; experiment: Residue remaining in Solanum lycopersicum (tomato) plant fruits at 300 g/L treated under green house condition measured after 3 days relative to initial level; details: 72 h
# [5] = tested on: Fruit; experiment: Drug recovery in Solanum lycopersicum (tomato) plant fruits at 0.14 ug/g of spiking level; assay type: ADME
# [6] = tested on: Leaf; experiment: Drug recovery in Solanum lycopersicum (tomato) plant leaves at 1.83 ug/cm'2 of spiking level; assay type: ADME
# [7] = tested on: Leaf; experiment: Drug degradation in Solanum lycopersicum (tomato) plant leaves at 300 g/L treated under green house condition measured after 4 days relative to initial level; assay type: ADME; details: 96 h
# [8] = tested on: Leaf; experiment: Drug degradation in Solanum lycopersicum (tomato) plant leaves at 300 g/L treated under green house condition measured after 5 days relative to initial level; assay type: ADME; details: 120 h
# [9] = tested on: Leaf; experiment: Drug residue remaining in Solanum lycopersicum (tomato) plant leaves at 300 g/L treated under green house condition measured after 22 days relative to initial level; details: 528 h
# [10] = tested on: Fruit; experiment: Drug degradation in Solanum lycopersicum (tomato) plant fruits at 300 g/L treated under green house condition measured after 10 days relative to initial level; assay type: ADME; details: 240 h
# [11] = tested on: Leaf; experiment: Drug degradation in Solanum lycopersicum (tomato) plant leaves at 300 g/L treated under green house condition measured after 8 days relative to initial level; assay type: ADME; details: 192 h
# [12] = Half life in Solanum lycopersicum (tomato) plant fruits at 300 g/L treated under green house condition; assay type: ADME, Fruit
# [13] = tested on: Leaf; experiment: Drug degradation in Solanum lycopersicum (tomato) plant leaves at 300 g/L treated under green house condition measured after 10 days relative to initial level; assay type: ADME; details: 240 h
# [14] = Half life in Solanum lycopersicum (tomato) plant leaves at 300 g/L treated under green house condition; assay type: ADME, Leaf
# [15] = tested on: Leaf; experiment: Residue remaining in Solanum lycopersicum (tomato) plant leaves at 300 g/L treated under green house condition measured after 7 days relative to initial level; details: 168 h
# [16] = tested on: Fruit; experiment: Drug degradation in Solanum lycopersicum (tomato) plant fruits at 300 g/L treated under green house condition measured after 8 days relative to initial level; assay type: ADME; details: 192 h
# [17] = tested on: Leaf; experiment: Drug degradation in Solanum lycopersicum (tomato) plant leaves at 300 g/L treated under green house condition measured after 1 day relative to initial level; assay type: ADME; details: 24 h
# [18] = tested on: Leaf; experiment: Drug degradation in Solanum lycopersicum (tomato) plant leaves at 300 g/L treated under green house condition measured after 3 days relative to initial level; assay type: ADME; details: 72 h
# [19] = tested on: Leaf; experiment: Residue remaining in Solanum lycopersicum (tomato) plant leaves at 300 g/L treated under green house condition measured after 11 days relative to initial level; details: 264 h
# [20] = tested on: Fruit; experiment: Drug degradation in Solanum lycopersicum (tomato) plant fruits at 300 g/L treated under green house condition measured after 1 day relative to initial level; assay type: ADME; details: 24 h
# [21] = tested on: Leaf; experiment: Drug degradation in Solanum lycopersicum (tomato) plant leaves at 300 g/L treated under green house condition measured after 6 days relative to initial level; assay type: ADME; details: 144 h
structure (smiles),measurement,setting,value
Cc1cc(C)nc(Nc2ccccc2)n1 [PYRIMETHANIL],Residue remaining,[1],0%
same,Residue remaining,[2],5%
same,Drug degradation,[3],0%
same,Residue remaining,[4],79%
same,Drug recovery,[5],99%
same,Drug recovery,[6],91%
same,Residue remaining,[7],22%
same,Drug remaining,[8],25%
same,Residue remaining,[9],0%
same,Drug remaining,[10],15%
same,Drug degradation,[11],0%
same,half-life,[12],137 h
same,Drug degradation,[13],0.02%
same,half-life,[14],96 h
same,Residue remaining,[15],11%
same,Residue remaining,[16],16%
same,Drug remaining,[17],100%
same,Residue remaining,[18],41%
same,Residue remaining,[19],0%
same,Drug remaining,[20],100%
same,Residue remaining,[21],11%
